In ChEMBL document CHEMBL3243940, “Primaquine analogues: derivatives of 4-amino-2-methoxyacridine” (J Med Chem, 1979) one finds Activity and Ratio data, which are given here for one molecule.

Structures are written as SMILES.

The subject of data set [1] is Syrian golden hamster. Kind of data set: Toxicity in amastigotes of Leishmania donovani Khartoum infected golden hamster at 208 mg/kg bid for 4 days. Conditions: in vivo, 96 h. On the set-up: dose 208 mg/kg. The class given is organism-based, Mesocricetus auratus.
Data set [2] relates to Leishmania donovani. Kind of data set: Antileishmanial activity against amastigotes of Leishmania donovani Khartoum infected in golden hamster assessed as reduction of parasite level in liver at 52 mg/kg bid for 4 days. The class given is functional. On the set-up: scale not given: the % may be the effect or the level left.
The subject of data set [3] is Leishmania donovani. Kind of data set: Ratio of glucantime SD50 to compound SD50 for amastigotes of Leishmania donovani Khartoum infected in golden hamster. The class given is functional.
Data set [4] concerns Leishmania donovani. Kind of data set: Antileishmanial activity against amastigotes of Leishmania donovani Khartoum infected in golden hamster assessed as reduction of parasite level in liver at 13 mg/kg bid for 4 days. The class given is functional. On the set-up: scale not given: the % may be the effect or the level left.

For the molecule `CCN(CC)CCCCCCNc1cc(OC)cc2c(C)c3ccccc3nc12`, the results for the Activity result in data set [1], in data set [2] and in data set [4] were “Toxic”, 53% and 36%, respectively. Also, the Ratio in data set [3] was 0.2.
